# Data reported in patent US7718669B2, “Triazolopyridine derivatives as inhibitors of lipases and phospholipases” (Sanofi-Aventis, priority 2005, dated 2010).
# Target: T1, endothelial lipase (EL) (Homo sapiens, UniProt Q9Y5X9)
# T1 construct: made in house; host or cells: recombinant CHO or HEK293 cell lines; concentrated conditioned medium
# T1 sequence (Q9Y5X9 21-500): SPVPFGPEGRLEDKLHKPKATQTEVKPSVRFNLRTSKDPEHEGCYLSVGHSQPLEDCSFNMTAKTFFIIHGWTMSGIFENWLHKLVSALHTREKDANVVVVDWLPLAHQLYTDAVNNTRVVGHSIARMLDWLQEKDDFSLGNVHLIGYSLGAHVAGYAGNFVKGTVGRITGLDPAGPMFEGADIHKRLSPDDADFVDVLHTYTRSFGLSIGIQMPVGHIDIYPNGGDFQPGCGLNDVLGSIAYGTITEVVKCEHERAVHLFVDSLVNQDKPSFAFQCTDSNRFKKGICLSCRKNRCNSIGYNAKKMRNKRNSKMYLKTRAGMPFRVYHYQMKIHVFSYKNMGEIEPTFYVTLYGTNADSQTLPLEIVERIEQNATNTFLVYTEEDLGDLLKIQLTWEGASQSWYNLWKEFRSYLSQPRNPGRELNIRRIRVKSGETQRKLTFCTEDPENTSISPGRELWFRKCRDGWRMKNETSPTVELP
# Test: EL inhibition assay
# Format: biochemical
# Details: EL from conditioned medium of recombinant cell lines (CHO, HEK293); Bodipy phospholipid substrate; 37° C. for 60 minutes
# Description: EL is released as secretory protein in high concentration into cell culture medium (conditioned medium) by recombinant cell lines (CHO, HEK293). This is employed as enzyme solution after concentration.
# The phospholipase-specific substrate 1,2-bis(4,4-difluoro-5,7-dimethyl-4-bora-3a,4a-diaza-s-indacene-3-undecanoyl)-sn-glycero-3-phosphocholine, (manufacturer Molecular Probes) is used to characterize the enzymatic activity of endothelial lipase and the effect of inhibitors. Hydrolysis of the A1 ester linkage of this phospholipid by the enzyme liberates the fluorescent dye Bodipy which can be detected after separation by thin-layer chromatography on an HPTLC plate (silica gel 60, Merck) or directly in the reaction vessel by measuring the fluorescence. The substrate solution is prepared by taking up 100 μg of 1,2-bis(4,4-difluoro-5,7-dimethyl-4-bora-3a,4a-diaza-s-indacene-3-undecanoyl)-sn-glycero-3-phospho-choline (manufacturer Molecular Probes), 2.4 mg of tripalmitin (Sigma) and 7.9 mg of DOP-choline (1,2-dioleoyl-sn-glycero-3-phosphocholine) in 393 μl of chloroform and then transferring 157 μl into a fresh reaction vessel. After evaporation of the solvent, the lipid mixture is dissolved in 4 ml of 200 mM TRIS-HCl, 150 mM sodium chloride, pH=7.4, by sonication twice. The subsequent enzymic reaction takes place at 37° C. for 60 minutes. For this purpose, 45 μl of the substrate solution are incubated with 1 μl of inhibitor of appropriate concentration (dissolved in DMSO, pure DMSO solution is used as control) and 5 μl of enzyme solution (conditioned medium). Then 3 μl of the assay mixture are loaded onto an HPTLC plate (silica gel 60, Merck), and the liberated fluorescent dye is separated for detection with an eluent (diethyl ether:petroleum benzene:acetic acid [78:22:1]). After evaporation of the eluent, the plate is read in a fluorescence scanner. An increased release of the fluorescent dye in the uninhibited reaction is to be observed as a measure of the enzymic activity.
# The enzymatic activity is reduced as a function of the inhibitor concentration used, and the inhibitor concentration at which a half-maximum enzymic activity is observed is called IC50.
row,IC50 [µM],Structure (SMILES)
1,0.04,CCCCCCNC(=O)n1nnc2nc(Cl)ccc21 [Example 56]
2,0.74,Cc1ccccc1CNC(=O)n1nnc2nc(Cl)ccc21 [Example 54]
3,0.58,Cc1ccccc1CNC(=O)n1nnc2ncc(Cl)cc21 [Example 55]
4,1.24,Cc1ccccc1CNC(=O)n1nnc2cc(Cl)cnc21 [Example 68]

# Target: T2, hormone sensitive lipase, HSL (Rattus norvegicus, UniProt P15304)
# T2 construct: Isolated rat fat cells are obtained from epididymal adipose tissue; from tissue; host or cells: fat cells from epididymal adipose tissue of male Wistar rats
# T2 sequence (P15304 301-1068 limits assumed): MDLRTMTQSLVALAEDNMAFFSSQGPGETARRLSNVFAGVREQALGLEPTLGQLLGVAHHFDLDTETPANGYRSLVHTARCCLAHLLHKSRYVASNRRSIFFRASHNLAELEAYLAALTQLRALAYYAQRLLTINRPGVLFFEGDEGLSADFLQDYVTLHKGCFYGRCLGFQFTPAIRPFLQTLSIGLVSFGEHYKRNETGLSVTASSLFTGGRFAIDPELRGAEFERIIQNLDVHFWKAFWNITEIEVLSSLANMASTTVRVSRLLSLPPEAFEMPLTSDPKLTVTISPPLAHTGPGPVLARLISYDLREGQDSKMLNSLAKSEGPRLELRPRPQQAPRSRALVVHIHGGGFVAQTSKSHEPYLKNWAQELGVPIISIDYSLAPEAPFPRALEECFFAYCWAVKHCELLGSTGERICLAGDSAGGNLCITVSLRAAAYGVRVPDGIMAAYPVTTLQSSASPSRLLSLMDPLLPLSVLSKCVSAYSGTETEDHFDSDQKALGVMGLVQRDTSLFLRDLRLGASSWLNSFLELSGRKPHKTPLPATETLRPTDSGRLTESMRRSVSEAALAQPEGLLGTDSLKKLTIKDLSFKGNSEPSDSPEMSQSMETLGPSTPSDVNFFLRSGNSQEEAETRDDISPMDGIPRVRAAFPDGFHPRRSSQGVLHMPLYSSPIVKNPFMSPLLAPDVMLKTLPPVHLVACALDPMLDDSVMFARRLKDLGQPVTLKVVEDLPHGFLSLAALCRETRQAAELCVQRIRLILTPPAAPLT
# Test: HSL inhibition assay
# Format: biochemical
# Details: partially purified HSL from rat fat cells; [3H]trioleoylglycerol substrate; 37° C. for 30 min
# Method: Preparation of the Partially Purified HSL:
# Isolated rat fat cells are obtained from epididymal adipose tissue from untreated male rats (Wistar, 220-250 g) by collagenase treatment in accordance with published methods (e.g. S, Nilsson et al., Anal. Biochem. 158, 1986, 399-407; G. Fredrikson et al., J. Biol. Chem. 256, 1981, 6311-6320; H. Tornquist et al., J. Biol. Chem. 251, 1976, 813-819). The fat cells from 10 rats are washed three times by flotation with 50 ml of homogenization buffer ([…] Tris/HCl, pH 7.4, 0.25 M sucrose, 1 mM ETDA, 1 mM DTT, 10 μg/ml leupeptin, 10 μg/ml antipain, 20 μg/ml pepstatin) each time and finally taken up in 10 ml of homogenization buffer. The fat cells are homogenized in a Teflon-in-glass homogenizer (Braun-Melsungen) by 10 strokes at 1500 rpm and 15° C. The homogenate is centrifuged (Sorvall SM24 tubes, 5000 rpm, 10 min, 4° C.). The subnatant between the layer of fat at the top and the pellet is removed and the centrifugation is repeated. The subnatant resulting therefrom is centrifuged again (Sorvall SM24 tubes, 20 000 rpm, 45 min, 4° C.). […] After incubation at 4° C. for 60 min (shaking at intervals of 15 min), the mixture is centrifuged (Sorvall SM24 tubes, 3000 rpm, 10 min, 4° C.). The supernatant is adjusted to pH 5.2 by adding glacial acetic acid and is incubated at 4° C. for 30 min. The precipitates are collected by centrifugation (Sorvall SS34, 12 000 rpm, 10 min, 4° C.) and suspended in 2.5 ml of 20 mM Tris/HCl, pH 7.0, 1 mM EDTA, 65 mM NaCl, 13% sucrose, 1 mM DTT, 10 μg/ml leupeptin/pepstatin/antipain. The suspension is dialyzed against 25 mM Tris/HCl, pH 7.4, 50% glycerol, 1 mM DTT, 10 μg/ml leupeptin, pepstatin, antipain at 4° C. overnight and then loaded onto a hydroxiapatite column (0.1 g per 1 ml of suspension, equilibrated with 10 mM potassium phosphate, pH 7.0, 30% glycerol, 1 mM DTT). The column is washed with four volumes of equilibration buffer at a flow rate of 20 to 30 ml/h. The HSL is eluted with one volume of equilibration buffer containing 0.5 M potassium phosphate and then dialyzed (see above) and concentrated 5- to 10-fold by ultrafiltration (Amicon Diaflo PM 10 Filter) at 4° C. The partially purified HSL can be stored at −70° C. for 4 to 6 weeks.
# To prepare the substrate, 25-50 μCi of [3H]trioleoylglycerol (in toluene), 6.8 μmol of unlabeled trioleoylglycerol and 0.6 mg of phospholipids (phosphatidylcholine/phosphatidylinositol 3:1 w/v) are mixed, dried with N2 and then taken up in 2 ml of 0.1 M KPi (pH 7.0) by ultrasound treatment (Branson 250, microtip, setting 1-2, 2×1 min with an interval of 1 min). After addition of 1 ml of KPi and renewed ultrasound treatment (4×30 sec on ice with intervals of 30 sec), 1 ml of 20% BSA (in KPi) is added (final concentration of trioleoylglycerol 1.7 mM). For the reaction, 100 μl of substrate solution are pipetted into 100 μl of HSL solution (HSL prepared as above, diluted in 20 mM KPi, pH 7.0, 1 mM EDTA, 1 mM DTT, 0.02% BSA, 20 μg/ml pepstatin, 10 μg/ml leupeptin) and incubated at 37° C. for 30 min. Addition of 3.25 ml of methanol/chloroform/heptane (10:9:7) and of 1.05 ml of 0.1 M K2CO3, 0.1 M boric acid (pH 10.5) is followed by thorough mixing and finally centrifugation (800×g, 20 min). After phase separation, one equivalent of the upper phase (1 ml) is removed and the radioactivity is determined by liquid scintillation measurement.
# Substances are normally tested in four independent mixtures. The inhibition of the HSL enzymatic activity by a test substance is determined by comparing with an uninhibited control reaction. The IC50 is calculated from an inhibition plot with at least 10 concentrations of the test substance. The GRAPHIT, Elsevier-BIOSOFT software package is used to analyze the data.
row,IC50 [µM],Structure (SMILES)
1,0.237,CCCCCCCCN1CCN(C(=O)n2nnc3ncccc32)CC1 [Example 51]
2,0.45,COC(=O)c1ccc(C2CCN(C(=O)n3nnc4ncccc43)CC2)cc1 [Example 23]
3,0.112,O=C(N1CCC(c2ccc3ccccc3c2)CC1)n1nnc2ncccc21 [Example 33]
4,0.763,O=C(N1CCC(c2ccccc2F)CC1)n1nnc2ncccc21 [Example 43]
5,0.198,O=C(N1CCN(c2ccc(-c3ccccc3)cc2)CC1)n1nnc2ncccc21 [Example 26]
6,0.03,O=C(N1CCc2ccccc2C1)n1nnc2cccnc21 [Example 64]
7,0.965,CC1CCCN(C(=O)n2nnc3cccnc32)C1 (centres unmarked) [Example 63]
8,0.03,"CC1CCN(C(=O)n2nnc3ccc(Cl)nc32)CC1 [Example 61, (5-chloro-[1,2,3]triazolo[4,5-b]pyridin-3-yl)-(4-methylpiperidin-1-yl)-methanone]"
9,0.3,"CC1CCN(C(=O)n2nnc3ncc(Cl)cc32)CC1 [Example 5, (6-Chloro-[1,2,3]triazolo[4,5-b]pyridin-1-yl)-(4-methyl-piperidin-1-yl)-methanone]"
10,0.159,Nc1ccc(C2CCN(C(=O)n3nnc4ncccc43)CC2)cc1 [Example 42]
11,0.215,Cc1ccccc1N1CCN(C(=O)n2nnc3ncccc32)CC1 [Example 25]
12,0.662,O=C(N1CCC(CCc2ccccc2)CC1)n1nnc2ncccc21 [Example 48]
13,0.136,CCCC1CCN(C(=O)n2nnc3ncccc32)CC1 [Example 31]
14,0.585,CC1CC(C)CN(C(=O)n2nnc3ncccc32)C1 (centres unmarked) [Example 30]
15,0.826,O=C(N1CCC(c2cccc(C(F)(F)F)c2)CC1)n1nnc2ncccc21 [Example 53]
16,0.78,O=C(C1CCC2(CC1)CCN(c1ccccc1)C2=O)n1nnc2ncccc21 (centres unmarked) [Example 35]
17,0.607,Cc1cccc(C)c1N1CCN(C(=O)n2nnc3ncccc32)CC1 [Example 14]
18,0.07,O=C(N1CCc2ccccc2C1)n1nnc2ncccc21 [Example 4]
19,0.576,CCOc1ccc(N2CCN(C(=O)n3nnc4ncccc43)CC2)cc1 [Example 37]
20,0.175,CCCCCN(CCCCC)C(=O)n1nnc2ncccc21 [Example 24]
21,0.15,"O=C(N1CCc2ccccc2C1)n1nnc2ccc(Cl)nc21 [Example 66, (5-chloro-[1,2,3]triazolo[4,5-b]pyridin-3-yl)-(3,4-dihydro-1H-isoquinolin-2-yl)-methanone]"
22,0.062,O=C(N1CCN(c2ccc(OCc3ccccc3)cc2)CC1)n1nnc2ncccc21 [Example 41]
23,0.367,CC1(C)CCCN(C(=O)n2nnc3ncccc32)C1 [Example 50]
24,0.5,"CC1CCN(C(=O)n2nnc3nc(Cl)ccc32)CC1 [Example 1, (5-Chloro-[1,2,3]triazolo[4,5-b]pyridin-1-yl)-(4-methylpiperidin-1-yl)-methanone]"
25,0.16,CC1CCN(C(=O)n2nnc3cccnc32)CC1 [Example 62]
